Measured values taken from ChEMBL document CHEMBL5150009, “Specific Inhibitor of Placental Alkaline Phosphatase Isolated from a DNA-Encoded Chemical Library Targets Tumor of the Female Reproductive Tract” (J Med Chem, 2021).
Activity calls are given as the source filed them. The rule behind the calls is not given here.

How the values were obtained:
[1] = Inhibition of human recombinant PLAP using biotinylated CDP as substrate incubated for 30 mins by chemiluminescent assay
[2] = biological target: T1, Alkaline phosphatase, placental type (Homo sapiens, UniProt P05187); assay: Binding affinity to human PLAP incubated for 15 mins by Fluorescence polarization assay
[3] = biological target: T1, Alkaline phosphatase, placental type; assay: Inhibition of human PLAP using biotinylated CDP as substrate incubated for 30 mins by chemiluminescent assay
[4] = biological target: T2, Alkaline phosphatase, tissue-nonspecific isozyme (Homo sapiens) (UniProt P05186); assay: Binding affinity to TNAP (unknown origin) incubated for 15 mins by Fluorescence polarization assay
T2 sequence (whole entry): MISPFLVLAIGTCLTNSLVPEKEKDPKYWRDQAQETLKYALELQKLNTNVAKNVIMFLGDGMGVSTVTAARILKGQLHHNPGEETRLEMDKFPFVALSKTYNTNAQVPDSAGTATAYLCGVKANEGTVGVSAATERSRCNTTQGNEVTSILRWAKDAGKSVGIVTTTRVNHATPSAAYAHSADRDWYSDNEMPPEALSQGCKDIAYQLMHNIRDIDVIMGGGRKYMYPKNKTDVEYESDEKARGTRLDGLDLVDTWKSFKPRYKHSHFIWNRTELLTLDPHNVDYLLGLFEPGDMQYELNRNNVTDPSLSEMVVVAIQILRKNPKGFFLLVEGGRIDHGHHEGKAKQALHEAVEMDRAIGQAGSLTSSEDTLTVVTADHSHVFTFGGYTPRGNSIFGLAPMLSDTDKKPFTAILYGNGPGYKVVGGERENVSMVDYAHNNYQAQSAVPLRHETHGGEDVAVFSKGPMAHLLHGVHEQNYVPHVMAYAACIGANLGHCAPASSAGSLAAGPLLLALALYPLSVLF

[5] = biological target: T2, Alkaline phosphatase, tissue-nonspecific isozyme (Homo sapiens); assay: Inhibition of TNAP (unknown origin) at 20 uM using biotinylated CDP as substrate incubated for 30 mins by chemiluminescent assay
[6] = tested on: SK-OV-3; assay: Inhibition of human recombinant PLAP expressed in human SK-OV-3 cells assessed as fluorescence intensity at 100 nM incubated for 1 hr by FACS based flow cytometry analysis; format: cell-based
[7] = tested on: HeLa; assay: Inhibition of human recombinant PLAP expressed in human HeLa cells assessed as fluorescence intensity at 100 nM incubated for 1 hr by FACS analysis; format: cell-based
[8] = tested on: HeLa; assay: Antitumor activity against human HeLa cells xenografted in […] nu/nu mouse assessed as cell accumulation in spleen at 2.5 micromol/kg, iv incubated for 1 hr by microscopic analysis; format: functional, organism-based; conditions: dose 2.5 µmol/kg
[9] = tested on: HeLa; assay: Antitumor activity against human HeLa cells xenografted in […] nu/nu mouse assessed as cell accumulation in heart at 2.5 micromol/kg, iv incubated for 1 hr by microscopic analysis; format: functional, organism-based; conditions: dose 2.5 µmol/kg
[10] = tested on: HeLa; assay: Antitumor activity against human HeLa cells xenografted in […] nu/nu mouse assessed as cell accumulation in intestine at 2.5 micromol/kg, iv incubated for 1 hr by microscopic analysis; format: functional, organism-based; conditions: dose 2.5 µmol/kg
[11] = tested on: SK-OV-3; assay: Inhibition of human recombinant PLAP expressed in human SK-OV-3 cells assessed as localization of cell on membrane at 120 nM incubated for 15 mins by Hoechst 33342 staining based laser microscopic analysis
[12] = tested on: HeLa; assay: Antitumor activity against human HeLa cells xenografted in […] nu/nu mouse assessed as cell accumulation in lung at 2.5 micromol/kg, iv incubated for 1 hr by microscopic analysis; format: functional, organism-based; conditions: dose 2.5 µmol/kg
[13] = tested on: OVCAR-3; assay: Inhibition of human recombinant PLAP expressed in human OVCAR-3 cells assessed as fluorescence intensity at 100 nM incubated for 1 hr by FACS based flow cytometry analysis; format: cell-based
[14] = tested on: HeLa; assay: Inhibition of human recombinant PLAP expressed in human HeLa cells assessed as localization of cell on membrane at 120 nM incubated for 15 mins by Hoechst 33342 staining based laser microscopic analysis
[15] = tested on: HeLa; assay: Antitumor activity against human HeLa cells xenografted in […] nu/nu mouse assessed as cell accumulation in liver at 2.5 micromol/kg, iv incubated for 1 hr by microscopic analysis; format: functional, organism-based; conditions: dose 2.5 µmol/kg
[16] = tested on: HeLa; assay: Induction of cell death in human HeLa cells incubated for 72 hrs in presence of uniCAR T cells by microscopic analysis; format: functional, cell-based

T1 sequence (P05187 whole entry): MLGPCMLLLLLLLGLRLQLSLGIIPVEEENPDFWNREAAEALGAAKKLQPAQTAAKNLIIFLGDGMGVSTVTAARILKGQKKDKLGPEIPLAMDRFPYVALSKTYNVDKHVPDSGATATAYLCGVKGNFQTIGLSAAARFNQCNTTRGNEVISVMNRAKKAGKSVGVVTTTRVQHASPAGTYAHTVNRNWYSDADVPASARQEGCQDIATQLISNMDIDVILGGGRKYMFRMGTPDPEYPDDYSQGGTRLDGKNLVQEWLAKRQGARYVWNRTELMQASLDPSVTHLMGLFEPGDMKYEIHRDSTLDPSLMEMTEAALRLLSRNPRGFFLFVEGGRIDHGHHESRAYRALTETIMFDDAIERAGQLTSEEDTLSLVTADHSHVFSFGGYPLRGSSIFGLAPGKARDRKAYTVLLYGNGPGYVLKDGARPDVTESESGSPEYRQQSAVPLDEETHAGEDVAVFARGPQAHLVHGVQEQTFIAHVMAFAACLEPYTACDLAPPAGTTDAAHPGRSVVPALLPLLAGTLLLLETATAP

| Structure (SMILES) | IC50 [1] | Activity [2] | also measured |
| --- | --- | --- | --- |
| C[C@@H]1CCC[C@H](C)N1CCC(=O)N[C@@H](CCC(=O)N[C@@H](CCC(=O)O)C(=O)N[C@@H](CCCCN)C(N)=O)C(=O)NCCCSCc1ccc(F)cc1 | 16 µM | Active | – |
| CC(C)(C)OC(=O)n1c(-c2ccccc2C[C@@H](NC(=O)c2cnc3ccccn3c2=O)C(=O)O)cc2c(Cl)cccc21 | 13 µM | Active | – |
| COc1c(Cl)cc(-c2cccc(C[C@H](NC(=O)c3cc(-c4ccc(C)o4)[nH]n3)C(=O)O)c2)cc1Cl | 0.13 µM | Active | – |
| C[C@@H]1CCC[C@H](C)N1CCC(=O)N[C@@H](CCC(=O)NCC(=O)N[C@@H](CCCCN)C(N)=O)C(=O)NCCCSCc1ccc(F)cc1 | > 20 µM | Active | – |
| Cc1ccc(NC(=O)NCC#Cc2ccc(C[C@@H](NC(=O)c3nn(C)c(C)c3Br)C(=O)O)cc2)cc1 | > 20 µM | Active | – |
| Cc1cc(-c2cnccn2)ccc1NC(=O)[C@H](CCC(N)=O)n1cc(CNC(=O)c2ccc3ncn(CC(=O)c4ccc(O)c(O)c4)c3c2)nn1 | 2.5 µM | Active | – |
| COC(=O)[C@H](Cc1ccc(-c2ccc(Cl)cc2C(F)(F)F)cc1)NC(=O)CC1C(=O)Nc2cc(C)ccc21 (stereo partly drawn) | 3.9 µM | Active | – |
| Cc1ccc(NC(=O)NCC#Cc2ccc(C[C@H](NC(=O)c3nn(C)c(C)c3Br)C(=O)O)cc2)cc1 | 19 µM | Active | – |
| COc1c(Cl)cc(-c2cccc(C[C@@H](NC(=O)c3cc(-c4ccc(C)o4)[nH]n3)C(=O)O)c2)cc1Cl | – | Active | IC50 [3]: 0.032 µM; Activity [4]: Active; inhibition [5]: Active |
| NC(=O)CC[C@@H](C(=O)Nc1cccc(Oc2ccccc2)c1)n1cc(CNC(=O)c2ccc3ncn(CC(=O)c4ccc(O)c(O)c4)c3c2)nn1 | 0.84 µM | Active | – |
| Cc1cc(-c2cnccn2)ccc1NC(=O)[C@@H](CCC(N)=O)n1cc(CNC(=O)c2ccc3ncn(CC(=O)c4ccc(O)c(O)c4)c3c2)nn1 | 2.4 µM | Active | – |
| Cc1ccc2c(c1)NC(=O)C2CC(=O)N[C@@H](Cc1ccc(-c2ccc(Cl)cc2C(F)(F)F)cc1)C(=O)O (stereo partly drawn) | 0.24 µM | Active | – |
| CC(C)(C)OC(=O)n1c(-c2ccccc2C[C@H](NC(=O)c2cnc3ccccn3c2=O)C(=O)O)cc2c(Cl)cccc21 | 4 µM | Active | – |
| Cc1cc(NC(=O)[C@@H](CCC(=O)N[C@@H](CCC(=O)O)C(=O)N[C@@H](CCCCN)C(N)=O)NC(=O)CC(C)(C)CC(N)=O)ccc1Br | > 20 µM | – | – |
| Cc1cc(NC(=O)[C@H](CCC(=O)NCC(=O)N[C@@H](CCCCN)C(N)=O)NC(=O)CC(C)(C)CC(N)=O)ccc1Br | > 20 µM | – | – |
| COc1c(Cl)cc(-c2cccc(C[C@@H](NC(=O)c3cc(-c4ccc(C)o4)[nH]n3)C(=O)NCCOCCOCCNC(=S)Nc3ccc(-c4c5ccc(=O)cc-5oc5cc(O)ccc45)c(C(=O)O)c3)c2)cc1Cl | – | – | Activity [6]: Active; Activity [7]: Active; Activity [8]: Active; Activity [9]: Active; Activity [10]: Active; Activity [11]: Active; Activity [12]: Active; Activity [13]: Active; Activity [14]: Active; Activity [15]: Active; Activity [16]: Active |
| NC(=O)CC[C@H](C(=O)Nc1cccc(Oc2ccccc2)c1)n1cc(CNC(=O)c2ccc3ncn(CC(=O)c4ccc(O)c(O)c4)c3c2)nn1 | 5 µM | Active | – |
